# Assay results: ChEMBL document CHEMBL6182930, “Discovery of TBK1Molecular Glue Degraders as a Potential Strategy for the Treatment of Autosomal Dominant Polycystic Kidney Disease (ADPKD)” (J Med Chem, 2025)
# Calls of active or inactive are those of the source. No cut-off for these calls is given here.
# Columns and labels:
# [1] = Half-life in rat at 10 mg/kg, po measured after 24 hrs by LC-MS/MS analysis; type: ADME, organism-based; conditions: in vivo
# [2] = Cmax in rat at 10 mg/kg, po measured after 24 hrs by LC-MS/MS analysis; type: ADME, organism-based; conditions: in vivo
# Mus musculus [3] = assay: Anti-inflammatory activity in PKD1 knockout ADPKD (Pkd1 flox/flox; Ksp-Cre) C57BL/6 mouse model assessed as decrease in IFN-beta level in kidney at 5 mg/kg, SC administered from postnatal day 6 and measured on postnatal day 12 by RT-qPCR analysis; type: functional, organism-based; conditions: time 7.0 day
# Mus musculus [4] = assay: In vivo inhibition of TBK1-mediated activation of inflammatory pathway in PKD1 knockout ADPKD (Pkd1 flox/flox; Ksp-Cre) C57BL/6 mouse model assessed as decrease in phosphorylated IRF3 level in kidney at 5 mg/kg, SC administered from postnatal day 6 and measured on postnatal day 12 by Western blot analysis; type: functional, organism-based; conditions: time 7.0 day
# [5] = molecular target: T1, E3 ubiquitin-protein ligase RNF126/Serine/threonine-protein kinase TBK1 (Homo sapiens, UniProt Q9UHD2+Q9BV68); assay: Molecular glue activity at RNF126/TBK1 in HEK293T cells assessed as induction of TBK1 degradation at 1 uM by Western blot analysis; type: cell-based; conditions: time 2-24 hrs
# T1 sequence (Q9BV68 2-311 partner limits assumed): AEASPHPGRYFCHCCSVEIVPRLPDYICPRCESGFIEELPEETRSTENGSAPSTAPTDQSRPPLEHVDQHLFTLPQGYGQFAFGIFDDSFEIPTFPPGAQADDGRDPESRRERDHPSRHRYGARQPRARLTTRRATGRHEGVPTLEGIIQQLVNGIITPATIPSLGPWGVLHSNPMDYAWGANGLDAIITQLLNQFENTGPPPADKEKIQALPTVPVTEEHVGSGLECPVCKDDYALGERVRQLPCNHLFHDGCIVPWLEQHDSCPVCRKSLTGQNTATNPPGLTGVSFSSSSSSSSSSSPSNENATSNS
# T1 sequence (Q9UHD2 whole entry): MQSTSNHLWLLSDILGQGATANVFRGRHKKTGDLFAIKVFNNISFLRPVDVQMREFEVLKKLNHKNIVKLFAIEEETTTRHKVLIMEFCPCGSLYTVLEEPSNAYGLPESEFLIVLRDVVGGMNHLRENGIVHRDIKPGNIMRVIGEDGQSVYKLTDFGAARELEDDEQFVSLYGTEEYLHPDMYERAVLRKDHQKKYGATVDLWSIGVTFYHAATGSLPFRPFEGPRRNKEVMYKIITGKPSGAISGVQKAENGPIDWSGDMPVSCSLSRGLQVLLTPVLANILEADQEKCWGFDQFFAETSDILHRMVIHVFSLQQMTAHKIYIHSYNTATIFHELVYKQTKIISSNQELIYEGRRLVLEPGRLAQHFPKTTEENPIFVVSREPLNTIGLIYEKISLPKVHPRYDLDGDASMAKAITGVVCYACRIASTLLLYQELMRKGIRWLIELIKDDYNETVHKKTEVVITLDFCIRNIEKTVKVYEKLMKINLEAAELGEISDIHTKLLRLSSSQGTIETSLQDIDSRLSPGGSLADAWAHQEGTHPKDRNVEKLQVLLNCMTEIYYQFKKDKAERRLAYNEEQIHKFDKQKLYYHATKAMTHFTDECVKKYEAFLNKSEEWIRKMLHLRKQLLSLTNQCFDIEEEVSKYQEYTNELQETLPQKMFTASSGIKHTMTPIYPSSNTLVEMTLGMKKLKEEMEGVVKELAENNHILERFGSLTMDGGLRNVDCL
# [6] = molecular target: T1, E3 ubiquitin-protein ligase RNF126/Serine/threonine-protein kinase TBK1; assay: Molecular glue activity at RNF126/TBK1 in human A549 cells assessed as induction of TBK1 degradation at 1 uM by Western blot analysis; type: cell-based; conditions: time 2-24 hrs
# [7] = Tmax in rat at 2 mg/kg, iv measured after 24 hrs by LC-MS/MS analysis; type: ADME, organism-based; conditions: in vivo
# [8] = AUC (0 to infinity) in rat at 2 mg/kg, iv measured after 24 hrs by LC-MS/MS analysis; type: ADME, organism-based; conditions: in vivo
# [9] = molecular target: T1, E3 ubiquitin-protein ligase RNF126/Serine/threonine-protein kinase TBK1; assay: Molecular glue activity at RNF126/TBK1 in human A549 cells assessed as induction of TBK1 degradation at 1 uM pretreated with MLN4924 for 2 hrs followed by compound addition and measured after 16 hrs by Western blot analysis; type: cell-based
# [10] = molecular target: T1, E3 ubiquitin-protein ligase RNF126/Serine/threonine-protein kinase TBK1; assay: Molecular glue activity at RNF126/TBK1 in human A549 cells assessed as induction of TBK1 degradation at 1 uM measured after 6 hrs by Western blot analysis; type: cell-based
# [11] = Tmax in rat at 10 mg/kg, po measured after 24 hrs by LC-MS/MS analysis; type: ADME, organism-based; conditions: in vivo
# [12] = Oral bioavailability in rat at 10 mg/kg measured after 24 hrs by LC-MS/MS analysis; type: ADME, organism-based; conditions: in vivo
# MDCK = assay: Inhibition of cystogenesis in forskolin-stimulated MDCK cells assessed as reduction in cyst growth at 100 nM by imaging analysis; type: functional, cell-based; conditions: Canis lupus familiaris, time 8.0 day
# [13] = Cmax in rat at 2 mg/kg, iv measured after 24 hrs by LC-MS/MS analysis; type: ADME, organism-based; conditions: in vivo
# Mus musculus [14] = assay: Anti-inflammatory activity in PKD1 knockout ADPKD (Pkd1 flox/flox; Ksp-Cre) C57BL/6 mouse model assessed as decrease in IL-6 level in kidney at 5 mg/kg, SC administered from postnatal day 6 and measured on postnatal day 12 by RT-qPCR analysis; type: functional, organism-based; conditions: time 7.0 day
# Mus musculus [15] = assay: Anti-inflammatory activity in PKD1 knockout ADPKD (Pkd1 flox/flox; Ksp-Cre) C57BL/6 mouse model assessed as decrease in IL-1beta level in kidney at 5 mg/kg, SC administered from postnatal day 6 and measured on postnatal day 12 by RT-qPCR analysis; type: functional, organism-based; conditions: time 7.0 day
smiles,measurement,setting,value
COc1ccc(C(=O)/C=C/C(=O)N2CCN(CC3CCN(Cc4cccc(Nc5ncc6ccn(CCCNC(=O)C7CCC7)c6n5)c4)CC3)CC2)cc1,half-life,[1],73.2 min
same,Cmax,[2],70 nM
same,Activity,Mus musculus [3],Active
same,inhibition,Mus musculus [4],Active
same,Activity,[5],Time-dependent-effect
same,Activity,[6],Time-dependent-effect
same,Tmax,[7],4.8 min
same,AUC(0-inf),[8],1.03 µM·h
same,Activity,[9],Active; Degradation In Independent Of Crl-Related Pathway
same,Activity,[10],Active; Significant Reduction In Tbk1 Level Observed
same,Tmax,[11],21.6 min
same,bioavailability,[12],2.77%
same,inhibition,MDCK,Time-dependent-effect; Effect Observed Starting On Day 6
same,Cmax,[13],1790 nM
same,Activity,Mus musculus [14],Active
same,Activity,Mus musculus [15],Active
